SMILES strings stand for the structures. ≈ marks a conversion by molar mass, not a printed value. Like-named read-outs stand apart in the source and are kept apart here.

Series [1] relates to HSV-1TK+ (Strain McCrae of type 1 herpes). Kind of series: Inhibition of viral CPE, HSV-1TK+ in MA-104 cells. Type of series: cell-based. The settings on record: for inhibition at 1 µg/mL: 1.0 μg/ml; for inhibition at 3.2 µg/mL: 3.2 μg/ml; for inhibition at 10 µg/mL: 10 μg/ml; for inhibition at 100 µg/mL: 100 μg/ml; for inhibition at 320 µg/mL: 320 μg/ml; for inhibition at 1000 µg/mL: 1000 μg/ml. As to the method: (§1) One herpes virus strain employed was Strain McCrae of type 1 herpes (thymidine kinase positive virus) (HSV-1TK^+). This strain was prepared and titered in MA-104 cells and frozen at -90° C. until use. Also used were strain HF (HSV-1TK^-). Strain E194 (HSV-2), NJB strain (MCMV), strain AD169 (HCMV).
(§2) Continuous passaged monkey kidney (MA-104) cells were used for testing of herpes-type virus, with growth medium consisting of Minimum Essential Medium (MEM) supplemented with 0.1% NaHCO3 and […] gentamicin.
(§3) To a 96 well microtiter plate containing an established 24 hour monolayer of cells from which the medium has been decanted was added 0.1 ml of varying (one-half log10) concentrations of test compound, which incubated on the cell 15 minutes, after which 0.1 ml of virus in a concentration of 320 cell culture 50% infectious doses (CCID50)/0.1 ml was added. The plate was covered with plastic wrap and incubated at 37° C. Included with the test were toxicity controls (each concentration of compound+test medium in place of virus), virus controls (virus+test medium in place of compound) and cell controls (test medium in place of compound and virus). The cells were examined microscopically after 72 hours for evidence of cytotoxicity and for viral cytopathic effect (CPE). Vidarabine was run on the same plate in parallel. The test compounds were added to the medium at a concentration of 2000 μg/ml for use as a positive control.
Antiviral activity was determined by observation of inhibition of viral CPE. This activity was expressed by ED50, defined as that dose range of compound causing 50% CPE inhibition.
A Virus Rating (VR) was also determined. VR is a numerical expression of antiviral activity, weighted to take into account any cytotoxicity observed, as discussed by Sidewell et al, Appl Microbiol (1971) 22:797. Generally, a VR of 0.1-0.4 indicates slight antiviral effect, 0.5-0.9 indicates moderate antiviral effect, and ≥1.0 indicates strong antiviral effect.

In series [2] the test system is human cytomegalovirus (strain AD169). As to the kind of experiment: Plaque reduction, human cytomegalovirus. It counts as cell-based. As to the method: as §1
^a 50% effective dose, determined from plot of data.
(§4) The data on acyclovir were gathered from tests run in MRC-5 cells grown under agarose overlay, with plaques read 7 days after virus exposure.

The test system of a further series is HSV-1TK+. Kind of series: In vivo guinea pig HSV-1TK+ lesion test, topical solution. The settings on record: guinea pigs; 5% solution of acyclovir; five days after treatment. How it is done:
Compound 2 also was tested in vivo in guinea pigs as an agent against HSV-1TK^+. The animals were inoculated with the virus; 18 hours later Compound 2 at two concentrations (0.4% and 1-2% (saturated) solution in water) was administered, and five days later blister diameters at the point of inoculation were measured. A 5% solution of acyclovir or a 1.4% solution of poly(vinylalcohol) was used as control. Satellite lesions were measured, as well.

Series [3] is described as follows: Cytotoxicity (maximum tolerated dose), control tests in 96-well microplates. The conditions noted are these: Table 5; microscopic examination, separately run control tests; read-out: Approx. MTD (dose causing approximately 50% cytotoxic effects in cells). It counts as cell-based.
From the text: (§5) ^b Maximum tolerated dose: That dose causing approximately 50%
(§6) cytotoxic effects in cells, determined by the microscopic examination of
(§7) cells for sloughing, shape alteration, and granularity in separately run
(§8) control tests in 96well microplates.
as §4

Another series deals with HSV-2 (Strain E194). Kind of series: Inhibition of viral CPE, HSV-2. Type of series: cell-based. How it is done: as §1, §2
as §3, with “The test compounds were added to the medium at a concentration of 2000 μg/ml for use as a positive control.” left out
(§9) Antiviral activity was determined by observation of inhibition of viral CPE. […]

The subject of the next series is cells. As to the kind of experiment: Cytotoxicity (maximum tolerated dose), control tests in 96-well microplates. The settings on record: overall, Table 5. It counts as cell-based.
From the text: as §5, §6, §7, §8, §4

For the next series, the system named is murine CMV (NJB strain). Kind of series: Inhibition of viral CPE, murine CMV. Type of series: cell-based. As to the method:
as §1, §2
as §3, with “Vidarabine was run on the same plate in parallel. The test compounds were added to the medium at a concentration of 2000 μg/ml for use as a positive control.” left out
as §9
A Virus Rating (VR) was also determined. […]

Series [4] deals with reverse transcriptase (RT) from Moloney murine leukemia virus (MMLV) or avian myeloblastosis virus (AMV). Kind of series: Reverse transcriptase assay. It counts as biochemical. The settings on record: 8 mM concentration. How it is done:
For the reverse transcriptase assay, cloned reverse transcriptase (RT) (Bethesda Research Laboratories) from Moloney murine leukemia virus (MMLV) or avian myeloblastosis virus (AMV) (Seikagaku or Boehringer Mannheim) was used to direct DNA synthesis from a polyribonucleotide template and a oligodeoxynucleotide primer under reaction conditions (Houts, G. E., et al, J Virol (1979) 29:517.)
Reaction mixtures (100 μl) for the assay of MMLV RT consisted of 50 mM Tris-hydrochloride, pH 8.0, 6 mM MgCl2, 40 mM KCl, 100 μg bovine serum albumin per ml, 1 mM dithiothreitol, 0.1 mM polyadenylic acid (Pharmacia, Inc.), 0.1 mM oligo(dT)12-18 (Pharmacia, Inc.), 0.4 mM deoxythymidine triphosphate (dTTP), and 0.1 mM tritiated (93.5 Cl/mmol) dTTP (New England Nuclear). The compounds assayed were added in various concentrations and dilutions at a volume of 10 μl. Results were confirmed by duplicate assays. Dilutions were made using 10% aqueous DMSO. The total activity was measured by spotting on dry Whatman 3 mm filter disks and radioactivity was determined by liquid scintillation techniques. The assay time course was begun by adding 10 units of RT from MMLV or AMV and incubating the reaction at 37° C. […] Disks were dried under a heat lamp and the acid-insoluble product radioactivity was determined by liquid scintillation counting. […]

Another series relates to HIV. As to the kind of experiment: Antiviral activity versus HIV in lymphoblastoid cells. It counts as cell-based. The settings on record: Human immunodeficiency virus 1, Lymphoblastoid cell; read-out: ED50 against HIV. As to the method: The compounds of the invention were evaluated in vitro as antiviral agents against herpes virus and against RNA retrovirus. Various herpes strains were used. An infected B lymphoblastoid cell line was used as HIV substrate to test antiviral activity with respect to RNA retrovirus.
To test antiviral activity versus HIV, the following procedure was used: Infectious HIV was assayed in cell culture as described originally by Barre-Sinoussi et al for isolation of LAV, except that persistently infected lymphoblastoid cells were used instead of mononuclear cells from anti-LAV negative donors. HIV obtained from cell culture was stored in liquid nitrogen in aliquots of RPMI 1640 culture medium with 20% of total calf serum and 20% glycerol and containing 1,000 TCID-50 HIV. The lymphoblastoid cells (10^6) were incubated with 1,000 TCID-50 of HIV obtained from cell cultures, and cells were then cultured in RPMI-1640 medium. Culture medium was changed every 3 days for 3 weeks and the medium for each 3-day period from Day 6 through Day 21 was assayed for viral reverse transcriptase activity by concentrating (pelleting) virus by ultracentrifugation in the 100 place Spinco 25 rotor and assaying pellets for reverse transcriptase (RT) using a ^32 P-dTTP in the presence of dimer-template poly rA-oligo dT. […]

Where [5] appears, read: MA104, read-out: CPE Inhib., Table 2.
Where [6] appears, read: MA104, read-out: CPE Inhib., Table 3 Test 1.
[7] abbreviates: MA104, read-out: CPE Inhib., Table 3 Test 2.

Consider `Nc1ncnc2c1ncn2[C@@H]1O[C@H](CO)[C@@H](O)[C@@H]1O` [Vidarabine], for which the EC50 in series [1] (MA104, 72 h, read-out: ED50) turned out to be 10 µg/mL (≈ 37.4 µM). In series [1] (setting [5]), the inhibition at 1 µg/mL was determined as 56%, the inhibition at 3.2 µg/mL is 28%, the inhibition at 10 µg/mL was determined as 69% and the inhibition at 100 µg/mL was 87%. In [1] (setting [5]), the inhibition at 320 µg/mL was 100% and the inhibition at 1000 µg/mL came out at 100%. In addition, the inhibition at 32 µg/mL in series [1] (MA104, read-out: CPE Inhib., Table 2, 32 μg/ml) was determined as 87%. In [1] (setting [6]), the inhibition at 1 µg/mL worked out at 0%, the inhibition at 10 µg/mL turned out to be 60%, the inhibition at 320 µg/mL came out at 100% and the inhibition at 1000 µg/mL amounted to 100%. In series [1] (setting [7]), the inhibition at 1 µg/mL came to 0%, the inhibition at 3.2 µg/mL came to 0%, the inhibition at 100 µg/mL is 85% and the inhibition at 320 µg/mL was 100%. In series [1] (setting [7]), the inhibition at 1000 µg/mL was found to be 100%. In series [1] (Table 2, HSV-1TK+), the “VR (Virus Rating)” value came to 1.3. Also, the “VR (Virus Rating)” value in series [1] (Table 3 Test 1, HSV-1TK+) came out at 0.8. Also, the “VR (Virus Rating)” value in series [1] (Table 3 Test 2, HSV-1TK+) was found to be 0.7.

`Nc1nc2c(ncn2COCCO)c(=O)[nH]1` [Acyclovir, 9-(2-hydroxyethoxymethyl) guanine, reference compound]: the “No. Plaques” value is reported as 7 in series [2] (Experiment No. 1, 32 μg/ml); 1 in series [2] (Experiment No. 1, 100 μg/ml); 20 in [2] (Experiment No. 2, 10 μg/ml); 8 in series [2] (Experiment No. 2, 32 μg/ml); 1 in [2] (Experiment No. 2, 100 μg/ml). Besides, the “Approx. ED50” value in [2] (Experiment No. 2, determined from plot of data) is 10 to 32 µg/mL. The inhibition at 32 µg/mL in [2] (Human betaherpesvirus 5, AD169, Experiment No. 1, 32 μg/ml, read-out: % Reduct.) is 59%; in series [2] (Human betaherpesvirus 5, AD169, Experiment No. 2, 32 μg/ml, read-out: % Reduct.), 64%. Also, the inhibition at 100 µg/mL in series [2] (Human betaherpesvirus 5, AD169, Experiment No. 1, 100 μg/ml, read-out: % Reduct.) turned out to be 94%; in [2] (Human betaherpesvirus 5, AD169, Experiment No. 2, 100 μg/ml, read-out: % Reduct.), 96%. The inhibition at 10 µg/mL in series [2] (Human betaherpesvirus 5, AD169, Experiment No. 2, 10 μg/ml, read-out: % Reduct.) came to 9%. In series [2] (Human betaherpesvirus 5, AD169, Experiment No. 1, determined from plot of data, read-out: Approx. ED50), the EC50 lay within 10 to 32 µg/mL (≈ 44.4 to 142 µM). In addition, the “TK+ (average number of lesions)” value with HSV-1TK+ is listed as 1.0. For the same molecule, the CC50 in [3] is around 1000 µg/mL (≈ 4440 µM).

Regarding `CCOP(=O)(O)CCC(CO)OCn1cnc2c(=O)[nH]c(N)nc21` (stereo not drawn) [Compound 5, 9(3'-ethylphosphono-1'-hydroxymethyl-1'-propyloxymethyl)guanine], the “effectiveness against HSV1TK+” value in [1] is “mildly effective”. The “No. Plaques” value in series [2] (Experiment No. 1, 32 μg/ml) turned out to be 2; in [2] (Experiment No. 1, 100 μg/ml), 1; in series [2] (Experiment No. 2, 10 μg/ml) it was 7; in series [2] (Experiment No. 2, 32 μg/ml), 3; in series [2] (Experiment No. 2, 100 μg/ml), 0. For the same molecule, the inhibition at 32 µg/mL in series [2] (Human betaherpesvirus 5, AD169, read-out: % Reduct., Experiment No. 1, 32 μg/ml) worked out at 88%; in series [2] (Human betaherpesvirus 5, AD169, read-out: % Reduct., Experiment No. 2, 32 μg/ml), 86%. Moreover, the inhibition at 100 µg/mL is 94% in series [2] (Human betaherpesvirus 5, AD169, read-out: % Reduct., Experiment No. 1, 100 μg/ml) and 100% in series [2] (Human betaherpesvirus 5, AD169, read-out: % Reduct., Experiment No. 2, 100 μg/ml). For the same molecule, in series [2] (Human betaherpesvirus 5, AD169, read-out: % Reduct., Experiment No. 2, 10 μg/ml), the inhibition at 10 µg/mL amounted to 68%. Besides, the EC50 in [2] (Human betaherpesvirus 5, AD169, read-out: Approx. ED50, Experiment No. 1, determined from plot of data) was around 0.1 µg/mL (≈ 0.277 µM); in series [2] (Human betaherpesvirus 5, AD169, read-out: Approx. ED50, Experiment No. 2, determined from plot of data), around 3.2 µg/mL (≈ 8.86 µM); in [2] (Human betaherpesvirus 5, AD169, read-out: ED50, human CMV), 0.1 to 3.2 µg/mL (≈ 0.277 to 8.86 µM). The “human CMV-inhibitory effect relative to acyclovir” value in [2] (overall, Table 5) is “more potent”. The “effectiveness against HSV-2” value in the series on HSV-2 (Strain E194) was “mildly effective”. Moreover, the CC50 in [3] is around 1000 µg/mL (≈ 2770 µM). The “cytotoxicity relative to acyclovir” value in the series on cells is reported as “no more cytotoxic”.

For the molecule `Nc1nc2c(ncn2COCCCP(=O)(O)O)c(=O)[nH]1` [Compound 1, 9-(3'-phosphono-1'-propoxymethyl)guanine], the “activity against HSV-1TK+ relative to vidarabine” value in series [1] is reported as “comparable to that of vidarabine”. Also, the “VR (Virus Rating)” value in [1] (additional tests against HSV-1TK+) came out at 0.6. Besides, the “activity against murine CMV” value in the series with murine CMV (NJB strain) is reported as “not active”. In addition, in series [4], the “inhibition of reverse transcriptase” value came to 75%. In the series on HIV, the EC50 is 40 to 50 µg/mL (≈ 132 to 165 µM).

The record behind these values is patent US5047533A, “Acyclic purine phosphonate nucleotide analogs” (SRI International, priority 1990, dated 1991).
